In brackets after ≈: the same amount, converted by molar mass.

The first data set deals with E. coli TolC(−). Nature of the data set: TolC(−) MIC (NB). The data set is classed as cell-based. The note with it: Escherichia coli, read-out: TolC(−) MIC (μM)(NB).
Consider `CC(=O)N1CCN(C(=O)Nc2nnc(-c3ccc(F)cc3)o2)CC1` [compound 4198], for which the MIC is at least 100 µM.

With `O=C(Nc1nnc(-c2ccc(F)cc2)o1)N1CCN2CCCCC2C1` (stereo not drawn) [compound 4199], the MIC is at least 100 µM.

For the compound `O=C(Nc1nnc(-c2ccc(F)cc2)o1)N1CCCC2CCCCC21` (stereo not drawn) [compound 4200], the MIC was determined as 50 µM (≈ 17.2 µg/mL).

For `O=C(Nc1nnc(-c2ccc(F)cc2)o1)N1CCN(C(=O)c2ccco2)CC1` [compound 4201], the minimal inhibitory concentration (MIC) amounted to 28.1 µM (≈ 10.8 µg/mL).

Regarding `O=C(Nc1nnc(-c2ccc(F)cc2)o1)c1ccc(Oc2ccccc2)cn1` [compound 4258], the MIC is 35.4 µM (≈ 13.3 µg/mL).

As for `CC(C)(C)COc1ccc(C(=O)Nc2nnc(-c3ccc(F)cc3)o2)cc1` [compound 4284], the MIC is 70.7 µM (≈ 26.1 µg/mL).

In the case of `CC(C)(C)OC(=O)N1CCC(Oc2ccc(C(=O)Nc3nnc(-c4ccc(F)cc4)o3)cc2)CC1` [compound 4289], the minimal inhibitory concentration (MIC) was found to be 3.51 µM (≈ 1.69 µg/mL).

As to `Cc1cncc(Oc2ccc(C(=O)Nc3nnc(-c4ccc(F)cc4)o3)cc2)n1` [compound 4290], the MIC turned out to be 11.1 µM (≈ 4.36 µg/mL).

In the case of `O=C(Nc1nnc(-c2ccc(F)cc2)o1)c1cnc(Oc2ccccc2)nc1` [compound 4314], the MIC amounted to 6.25 µM (≈ 2.36 µg/mL).

Consider `COc1cc2c(cc1OC)CN(C(=O)Nc1nnc(-c3ccc(F)cc3)o1)CC2` [compound 4333], for which the MIC worked out at 12.5 µM (≈ 4.98 µg/mL).

`O=C(Nc1nnc(-c2ccc(F)cc2)o1)N1CCCC1` [compound 4346]: the MIC came out at 100 µM (≈ 27.6 µg/mL).

For `CN1CCCN(C(=O)Nc2nnc(-c3ccc(F)cc3)o2)CC1` [compound 4349], the MIC is at least 100 µM.

For `O=C1CN(C(=O)Nc2nnc(-c3ccc(F)cc3)o2)CCN1` [compound 4350], the MIC was at least 100 µM.

As to `CN1CCN(C(=O)Nc2nnc(-c3ccc(F)cc3)o2)CC1=O` [compound 4351], the MIC was at least 100 µM.

For the compound `O=C(Nc1nnc(-c2ccc(F)cc2)o1)N1CC2CC(C1)O2` [compound 4380], the MIC was at least 100 µM.

For `O=C(Nc1nnc(-c2ccc(F)cc2)o1)N1CC2CCC(C1)O2` [compound 4381], the MIC came out at 100 µM (≈ 31.8 µg/mL).

Regarding `COCCN1[C@H](C)CN(C(=O)Nc2nnc(-c3ccc(F)cc3)o2)C[C@@H]1C` [compound 4406], the MIC was 50 µM (≈ 18.9 µg/mL).

Consider `Cc1nc2c(s1)CN(C(=O)Nc1nnc(-c3ccc(F)cc3)o1)C2` [compound 4464], for which the minimum inhibitory concentration (MIC) is at least 100 µM.

As to `Cc1nnc(NC(=O)c2ccc(Oc3ccccc3)nc2)o1` [compound 4468], the MIC was at least 100 µM.

Take `O=C(Nc1nnc(C2CCC2)o1)c1ccc(Oc2ccccc2)nc1` [compound 4469]: the minimal inhibitory concentration (MIC) was 12.5 µM (≈ 4.2 µg/mL).

For the compound `O=C(Nc1nnc(-c2ccc(F)cc2)o1)N1Cc2ncsc2C1` [compound 4497], the MIC is at least 100 µM.

As for `Cc1ccccc1-c1nnc(NC(=O)c2ccc(Oc3ccccc3)nc2)o1` [compound 4498], the MIC worked out at 2.21 µM (≈ 0.823 µg/mL).

Consider `CC1CCN(C(=O)Nc2nnc(-c3ccc(F)cc3)o2)CC1` [compound 4684], for which the MIC was 15.8 µM (≈ 4.79 µg/mL).

`CC1(C)CCN(C(=O)Nc2nnc(-c3ccc(F)cc3)o2)CC1` [compound 4685]: the minimal inhibitory concentration (MIC) came to 12.5 µM (≈ 3.98 µg/mL).

`O=C(Nc1nnc(-c2ccc(F)cc2)o1)N1CCC(F)(F)CC1` [compound 4686]: the MIC amounted to 12.5 µM (≈ 4.08 µg/mL).

Regarding `O=C(Nc1nnc(-c2ccc(F)cc2)o1)N1CCOCC1` [compound 4697], the MIC stood at 100 µM (≈ 29.2 µg/mL).

Turning to `O=C(Nc1nnc(-c2ccc(F)cc2)o1)N1CCC2CCCCC2C1` (stereo not drawn) [compound 4698], the MIC was 8.84 µM (≈ 3.04 µg/mL).

For the compound `O=C(Nc1nnc(-c2ccc(F)cc2)o1)N1CCCCC1` [compound 4699], the MIC was found to be 25 µM (≈ 7.26 µg/mL).

Turning to `O=C(Nc1nnc(-c2ccc(F)cc2)o1)N1CCCCCC1` [compound 4700], the MIC was 15.8 µM (≈ 4.79 µg/mL).

For `COC(=O)C1CCN(C(=O)Nc2nnc(-c3ccc(F)cc3)o2)CC1` [compound 4701], the MIC came to 50 µM (≈ 17.4 µg/mL).

`O=C(Nc1nnc(-c2ccc(F)cc2)o1)N1CCC(N2CCCCC2)CC1` [compound 4702]: the MIC is above 100 µM.

Regarding `O=C(Nc1nnc(-c2ccc(F)cc2)o1)N1CCC(O)CC1` [compound 4734], the minimum inhibitory concentration (MIC) was 100 µM (≈ 30.6 µg/mL).

On to `O=C(Nc1nnc(-c2ccc(F)cc2)o1)N1CCC(C(F)(F)F)C1` (stereo not drawn) [compound 4735], for which the MIC was 22.3 µM (≈ 7.67 µg/mL).

Turning to `CC1=C(C)CN(C(=O)Nc2nnc(-c3ccc(F)cc3)o2)CC1` [compound 4738], the MIC amounted to 7 µM (≈ 2.21 µg/mL).

With `O=C(Nc1nnc(-c2ccc(F)cc2)o1)N1CCC2(CC1)COC2` [compound 4739], the minimum inhibitory concentration (MIC) was found to be 100 µM (≈ 33.2 µg/mL).

With `O=C(Nc1nnc(-c2ccc(F)cc2)o1)N1CCC(C2COC2)CC1` [compound 4740], the MIC was 100 µM (≈ 34.6 µg/mL).

As to `O=C(Nc1nnc(-c2ccc(F)cc2)o1)N1CCC(Nc2ccccc2)CC1` [compound 4741], the MIC was found to be 11.1 µM (≈ 4.23 µg/mL).

Regarding `CC1CCCN(C(=O)Nc2nnc(-c3ccc(F)cc3)o2)C1` (stereo not drawn) [compound 4767], the MIC worked out at 11.1 µM (≈ 3.38 µg/mL).

Take `CC1CC(C)CN(C(=O)Nc2nnc(-c3ccc(F)cc3)o2)C1` (stereo not drawn) [compound 4768]: the MIC turned out to be 6.25 µM (≈ 1.99 µg/mL).

On to `O=C(Nc1nnc(C2COc3ccccc3O2)o1)c1ccc(Oc2ccccc2)nc1` (stereo not drawn) [compound 4770], for which the MIC was determined as 4.42 µM (≈ 1.84 µg/mL).

For the compound `O=C(Nc1nnc(-c2ccc(F)cc2)o1)N1CCCC(F)(F)CC1` [compound 4776], the MIC was 12.5 µM (≈ 4.25 µg/mL).

For `O=C(Nc1nnc(-c2ccc(F)cc2)o1)N1CCCc2ccccc2C1` [compound 4777], the MIC was found to be 17.7 µM (≈ 6.23 µg/mL).

On to `COC(=O)c1ccc(OC2CCN(C(=O)Nc3nnc(-c4ccc(F)cc4)o3)CC2)cc1` [compound 4778], for which the MIC stood at 19.8 µM (≈ 8.74 µg/mL).

For `COC(=O)c1ccc(CC2CCN(C(=O)Nc3nnc(-c4ccc(F)cc4)o3)CC2)cc1` [compound 4779], the minimum inhibitory concentration (MIC) amounted to 12.5 µM (≈ 5.48 µg/mL).

For the compound `O=C(Nc1nnc(Cc2ccc(F)cc2)o1)c1ccc(Oc2ccccc2)nc1` [compound 4802], the MIC is 6.25 µM (≈ 2.44 µg/mL).

As to `CC1=CCN(C(=O)Nc2nnc(C3CCCCC3)o2)CC1` [compound 4805], the MIC worked out at 25 µM (≈ 7.26 µg/mL).

On to `O=C(Nc1nnc(C2CCCCC2)o1)N1CC=C(C(F)(F)F)CC1` [compound 4806], for which the MIC stood at 12.5 µM (≈ 4.3 µg/mL).

For `COCC1=CCN(C(=O)Nc2nnc(-c3ccc(F)cc3)o2)CC1` [compound 4843], the MIC is 25 µM (≈ 8.31 µg/mL).

For `CC1(C)CCCN(C(=O)Nc2nnc(-c3ccc(F)cc3)o2)CC1` [compound 4922], the MIC was found to be 12.5 µM (≈ 4.15 µg/mL).

Take `O=C(Nc1nnc(C2CCCCC2)o1)c1ccc(OC2CCCCC2)nc1` [compound 4925]: the MIC came out at 1.56 µM (≈ 0.578 µg/mL).

Take `O=C(Nc1nnc(C2COc3ccccc3O2)o1)c1ccc(OC2CCCCC2)nc1` (stereo not drawn) [compound 4926]: the MIC amounted to 1.56 µM (≈ 0.659 µg/mL).

Take `O=C(Nc1nnc(-c2ccc(F)cc2)o1)N1CCC(F)(F)C1` [compound 4930]: the MIC came out at 19.8 µM (≈ 6.18 µg/mL).

Regarding `O=C(Nc1nnc(-c2ccc(F)cc2)o1)N1CCC2(C1)CC2(F)F` (stereo not drawn) [compound 4931], the MIC worked out at 28.1 µM (≈ 9.49 µg/mL).

As to `O=C(Nc1nnc(-c2ccc(F)cc2)o1)N1CC(C(F)F)C2(CC2)C1` (stereo not drawn) [compound 4932], the MIC is 17.7 µM (≈ 6.23 µg/mL).

For `CCC1CCN(C(=O)Nc2nnc(-c3ccc(F)cc3)o2)CC1` [compound 4933], the MIC was determined as 6.25 µM (≈ 1.99 µg/mL).

On to `CCCC1CCN(C(=O)Nc2nnc(-c3ccc(F)cc3)o2)CC1` [compound 4934], for which the MIC was 6.25 µM (≈ 2.08 µg/mL).

On to `O=C(Nc1nnc(-c2ccc(F)cc2)o1)N1CCC=CCC1` [compound 4935], for which the MIC came out at 12.5 µM (≈ 3.78 µg/mL).

With `O=C(Nc1nnc(-c2ccc(F)cc2)o1)N1CCc2ccccc2CC1` [compound 4936], the MIC came out at 6.25 µM (≈ 2.2 µg/mL).

With `CC(C)(C)C1CCCN(C(=O)Nc2nnc(-c3ccc(F)cc3)o2)CC1` (stereo not drawn) [compound 4937], the MIC is 11.1 µM (≈ 4 µg/mL).

Turning to `CC(C)(C)C1CCN(C(=O)Nc2nnc(-c3ccc(F)cc3)o2)CC1` [compound 4938], the minimal inhibitory concentration (MIC) turned out to be 4.96 µM (≈ 1.72 µg/mL).

In the case of `O=C(Nc1nnc(-c2ccc(F)cc2)o1)N1CCC2(CCCC2)CC1` [compound 4939], the MIC came to 6.25 µM (≈ 2.15 µg/mL).

For `O=C(Nc1nnc(-c2ccc(F)cc2)o1)N1CCc2sccc2C1` [compound 4940], the MIC worked out at 3.13 µM (≈ 1.08 µg/mL).

`CCOC1CCN(C(=O)Nc2nnc(-c3ccc(F)cc3)o2)CC1` [compound 4993]: the MIC amounted to 44.5 µM (≈ 14.9 µg/mL).

With `CC(C)OC1CCN(C(=O)Nc2nnc(-c3ccc(F)cc3)o2)CC1` [compound 4994], the minimum inhibitory concentration (MIC) worked out at 44.5 µM (≈ 15.5 µg/mL).

On to `CC(C)(C)OC1CCN(C(=O)Nc2nnc(-c3ccc(F)cc3)o2)CC1` [compound 4995], for which the MIC was determined as 25 µM (≈ 9.06 µg/mL).

On to `O=C(Nc1nnc(-c2ccc3c(c2)CCC3)o1)N1CCC(Cl)=C(Cl)C1` [compound 5154], for which the MIC is 1.75 µM (≈ 0.664 µg/mL).

Turning to `O=C(Nc1nnc(-c2ccc3c(c2)CCC3)o1)N1CC=C(C(F)(F)F)CC1` [compound 5155], the MIC is 1.97 µM (≈ 0.745 µg/mL).

As for `O=C(Nc1nnc(-c2ccc(F)cc2)o1)N1CCC(c2ccccc2)CC1` [compound 5199], the MIC worked out at 5.57 µM (≈ 2.04 µg/mL).

As to `C[C@@H]1CCCN(C(=O)Nc2nnc(-c3ccc(F)cc3)o2)C1` [compound 5200], the MIC stood at 12.5 µM (≈ 3.8 µg/mL).

In the case of `O=C(Nc1nnc(-c2ccc(F)cc2)o1)N1CCCC(O)C1` (stereo not drawn) [compound 5201], the minimal inhibitory concentration (MIC) is above 100 µM.

As to `Cc1cc(F)cc(C)c1-c1nnc(NC(=O)N2CCc3ccccc3C2)o1` [compound 5202], the MIC was 7.02 µM (≈ 2.57 µg/mL).

Consider `Cc1cc(F)cc(C)c1-c1nnc(NC(=O)N2CCC(Cl)=C(Cl)C2)o1` [compound 5203], for which the MIC worked out at 0.781 µM (≈ 0.301 µg/mL).

In the case of `Cc1cc(F)cc(C)c1-c1nnc(NC(=O)N2CC=C(C(F)(F)F)CC2)o1` [compound 5204], the minimal inhibitory concentration (MIC) was 4.96 µM (≈ 1.91 µg/mL).

Take `CC(C)C1CCCN(C(=O)Nc2nnc(-c3ccc(F)cc3)o2)C1` (stereo not drawn) [compound 5212]: the MIC turned out to be 7.02 µM (≈ 2.33 µg/mL).

`Cc1ccccc1-c1nnc(NC(=O)N2CCc3ccccc3C2)o1` [compound 5214]: the MIC amounted to 7.02 µM (≈ 2.35 µg/mL).

Consider `Cc1ccccc1-c1nnc(NC(=O)N2CCC(Cl)=C(Cl)C2)o1` [compound 5215], for which the MIC was 1.56 µM (≈ 0.551 µg/mL).

`CC1=CCN(C(=O)Nc2nnc(-c3c(C)cc(F)cc3C)o2)CC1` [compound 5216]: the MIC was 12.5 µM (≈ 4.13 µg/mL).

As to `O=C(Nc1nnc(-c2ccc(N3CCCC3)cc2)o1)N1CCc2ccccc2C1` [compound 5222], the MIC was 25 µM (≈ 9.74 µg/mL).

On to `O=C(Nc1nnc(-c2ccc(N3CCCC3)cc2)o1)N1CC=C(C(F)(F)F)CC1` [compound 5223], for which the MIC was determined as 11.1 µM (≈ 4.54 µg/mL).

System in the next data set: not listed separately
Description: Mammalian cell cytotoxicity.
Settings: not given
The compound `Cc1ccccc1-c1nnc(NC(=O)c2ccc(Oc3ccccc3)nc2)o1` [compound 4498] displayed a CC50 above 100 µM.

System in another data set: not listed separately
Nature of the data set: Aqueous solubility, nephelometry. To be noted: water, kinetic from dmso stock.
`CC(C)(C)COc1ccc(C(=O)Nc2nnc(-c3ccc(F)cc3)o2)cc1` [compound 4284] returned a solubility of 3.12 µM (≈ 1.15 µg/mL).
